# Patent publication US20210024649A1, “Methods and Compositions for Antibody and Antibody-loaded Dendritic Cell Mediated Therapy” (The Board of Trustees of the Leland Stanford Junior …, priority 2014, published 2021)
# Test system: tumor-associated DC (TADC)
# Test: TADC cultured with alloIgG-IC with or without stimuli
# Format: cell-based, mouse
# Conditions: stimulus added to TADC with alloIgG-IC
# Description: BM mononuclear cells were negatively selected using a murine monocyte enrichment kit (Stem Cell Technologies, Vancouver Canada), and FSC^lo/SSC^lo/Gr1^hi/CD115^hi/MHCII^neg cells were sorted with a FACS Aria II (BD Biosciences). Monocytes were cultured for 4-5 days in the presence of 50 ng/ml GM-CSF (PeproTech) to generate DC. For TADC, tumors were digested in Hank's balanced salt solution (HBSS, Gibco) containing 5 mg/mL collagenase IV and 0.01 mg/mL DNase I (Sigma). Cells were applied on a Ficoll gradient and magnetically enriched using CD11b^+ selection kits (StemCells) and Gr1^neg/CD11c^+/MHCII^+ cells were sorted by FACS. In some experiments TADC were activated with 50 ng/mL TNFα (PeproTech) and 500 ng/mL CD40L (PeproTech) recombinant mouse proteins.
# To resolve this apparent discrepancy, tumor-associated DC (TADC) (FIG. 7a) were obtained and cultured these cells with tumor lysates or alloIgG-IC. […] Since the expression pattern of Fcγ receptors on TADC was similar to that of BMDC, and several immune stimuli are known to induce MAPK activation in DC, the effect of such stimuli on the response of TADC to allogG-IC was tested.
substance,measurement,value
polyinosinic:polycytidylic acid [poly I:C],activation of TADC and uptake of alloIgG-IC,enabled activation of TADC as well as uptake of alloIgG-IC
